Results published in US10689377B2 (Mirati Therapeutics, Inc., priority 2017, dated 2020).

Molecular target: KRas G12C (Homo sapiens, UniProt P01116, G12C)
Test: Cellular inhibition of KRas G12C measured by Phospho-ERK in NCI-H358 cells
Format: cell-based
Conditions: pERK(Thr202/Tyr204) normalized with GAPDH, NCI-H358 cells, 3 hours; read-out: IC50
In short: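 NCI-H358 cells were allowed to attach for 8-12 hours, then exposed to compounds for 3 hours at 0.5% DMSO final. After formaldehyde fixation and methanol permeabilization, phospho-ERK (Thr202/Tyr204) was detected by in-cell immunofluorescence and normalized to GAPDH; IC50 came from a 4-parameter fit of percent-of-DMSO values.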

Chain of KRas G12C (P01116 1-188 isoform P01116-2 G12C): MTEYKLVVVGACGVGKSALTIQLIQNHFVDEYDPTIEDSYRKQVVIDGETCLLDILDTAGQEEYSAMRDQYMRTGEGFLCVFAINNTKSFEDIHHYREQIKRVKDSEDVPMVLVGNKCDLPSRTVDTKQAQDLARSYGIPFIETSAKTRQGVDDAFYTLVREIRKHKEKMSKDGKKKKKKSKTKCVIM

SMILES | IC50
C=CC(=O)N1CCN(c2ncnc3c2CC(C)N(c2cc(O)cc4ccccc24)C3)CC1 (stereo not shown) [Example 6, 1-(4-(7-(3-hydroxynaphthalen-1-yl)-6-methyl-5,6,7,8-tetrahydropyrido[3,4-d]pyrimidin-4-yl)piperazin-1-yl)prop-2-en-1-one] | > 1000 nM
C=CC(=O)N1CCN(c2nc(OCCN3CCCC[C@@H]3C)nc3c2CCN(c2cc(O)cc4ccccc24)C3)CC1 [Example 88, (S)-1-(4-(7-(3-hydroxynaphthalen-1-yl)-2-(2-(2-methylpiperidin-1-yl)ethoxy)-5,6,7,8-tetrahydropyrido[3,4-d]pyrimidin-4-yl)piperazin-1-yl)prop-2-en-1-one] | 0.1 to 1000 nM
C=CC(=O)N1CCN(c2nc(OCCCN3CCOCC3)nc3c2CCN(c2cc(O)ccc2C)C3)CC1 [Example 105, 1-(4-(7-(5-hydroxy-2-methylphenyl)-2-(3-morpholinopropoxy)-5,6,7,8-tetrahydropyrido[3,4-d]pyrimidin-4-yl)piperazin-1-yl)prop-2-en-1-one] | > 1000 nM
C=CC(=O)N1CCN(c2nc(OC[C@@H]3CCCN3C)nc3c2CCN(c2ccccc2C(F)(F)F)C3)C[C@@H]1CC#N [Example 237, 2-((S)-1-acryloyl-4-(2-(((S)-1-methylpyrrolidin-2-yl)methoxy)-7-(2-(trifluoromethyl)phenyl)-5,6,7,8-tetrahydropyrido [3,4-d]pyrimidin-4-yl)piperazin-2-yl)acetonitrile 2,2,2-trifluoroacetate] | 0.1 to 1000 nM
C=CC(=O)N1CCN(c2nc(OCCCN3C[C@H]4C[C@@H]3CO4)nc3c2CCN(c2ccccc2C(F)(F)F)C3)CC1CC#N (stereo partly drawn) [Example 297, 2-[4-[2-[3-[(1R,4R)-2-oxa-5-azabicyclo[2.2.1]heptan-5-yl]propoxy]-7-[2-(trifluoromethyl)phenyl]-6,8-dihydro-5H-pyrido[3,4-d]pyrimidin-4-yl]-1-prop-2-enoyl-piperazin-2-yl]acetonitrile] | 0.1 to 1000 nM
C=CC(=O)N1CCN(c2nc(O[C@H](C)CN(C)C)nc3c2CCN(c2cc(O)ccc2OC(F)(F)F)C3)CC1 [Example 78, (R)-1-(4-(2-((1-(dimethylamino)propan-2-yl)oxy)-7-(5-hydroxy-2-(trifluoromethoxy)phenyl)-5,6,7,8-tetrahydropyrido[3,4-d]pyrimidin-4-yl)piperazin-1-yl)prop-2-en-1-one] | > 1000 nM
C=CC(=O)N1CCN(c2nc(OCCCN3CCOCC3)nc3c2CCN(c2cc(O)cc4ccccc24)C3=O)CC1 [Example 121, 4-(4-acryloylpiperazin-1-yl)-7-(3-hydroxynaphthalen-1-yl)-2-(3-morpholinopropoxy)-6,7-dihydropyrido[3,4-d]pyrimidin-8(5H)-one] | > 1000 nM
C=CC(=O)N1CCN(c2nc(OCCCN3C[C@@H]4C[C@H]3CO4)nc3c2CCN(c2cc(O)cc4ccccc24)C3)CC1 [Example 104, 1-(4-(2-(3-((1S,4S)-2-oxa-5-azabicyclo[2.2.1]heptan-5-yl)propoxy)-7-(3-hydroxynaphthalen-1-yl)-5,6,7,8-tetrahydropyrido[3,4-d]pyrimidin-4-yl)piperazin-1-yl)prop-2-en-1-one] | 0.1 to 1000 nM
C=CC(=O)N1CCN(c2nc(OCCN(C)C)nc3c2CCN(c2cc(O)cc4ccccc24)C3)C(CCO)C1 (stereo not shown) [Example 172, 1-(4-(2-(2-(dimethylamino)ethoxy)-7-(3-hydroxynaphthalen-1-yl)-5,6,7,8-tetrahydropyrido[3,4-d]pyrimidin-4-yl)-3-(2-hydroxyethyl)piperazin-1-yl)prop-2-en-1-one] | > 1000 nM
C=C(F)C(=O)N1CCN(c2ncnc3c2CCN(c2cccc4ccccc24)C3)C[C@@H]1CC#N [Example 610, (S)-2-(1-(2-fluoroacryloyl)-4-(7-(naphthalen-1-yl)-5,6,7,8-tetrahydropyrido[3,4-d]pyrimidin-4-yl)piperazin-2-yl)acetonitrile] | > 1000 nM
C=CC(=O)N1CCN(c2nc(O[C@H](C)CN(C)C)nc3c2CCN(c2cc(O)cc4ccccc24)C3)CC1CC#N (stereo partly drawn) [Example 150, 2-(1-acryloyl-4-(2-(((R)-1-(dimethylamino)propan-2-yl)oxy)-7-(3-hydroxynaphthalen-1-yl)-5,6,7,8-tetrahydropyrido[3,4-d]pyrimidin-4-yl)piperazin-2-yl)acetonitrile] | 0.1 to 1000 nM
C=CC(=O)N1CCN(c2nc(N3CCN(CCO)CC3)nc3c2CCN(c2cc(O)cc4ccccc24)C3)CC1 [Example 26, 1-(4-(2-(4-(2-hydroxyethyl)piperazin-1-yl)-7-(3-hydroxynaphthalen-1-yl)-5,6,7,8-tetrahydropyrido[3,4-d]pyrimidin-4-yl)piperazin-1-yl)prop-2-en-1-one] | > 1000 nM
C=CC(=O)N1CCN(c2nc(OCCN3CCC(F)(F)CC3)nc3c2CCN(c2cc(O)cc4ccccc24)C3)CC1 [Example 109] | > 1000 nM

The next lines start with the values.

IC50 | SMILES
0.1 to 1000 nM | C=CC(=O)N1CCN(c2nc(OCC(C)(C)N(C)C)nc3c2CCN(c2cccc4ccccc24)C3)CC1CC#N (stereo not shown) [Example 269, 2-(1-acryloyl-4-(2-(2-(dimethylamino)-2-methylpropoxy)-7-(naphthalen-1-yl)-5,6,7,8-tetrahydropyrido[3,4-d]pyrimidin-4-yl)piperazin-2-yl)acetonitrile]
0.1 to 1000 nM | C=CC(=O)N1CCN(c2nc(OC[C@@H]3CCCN3C)nc3c2CCN(c2cccc(Cl)c2CC)C3)C[C@@H]1CC#N [Example 337, 2-[(2S)-4-[7-(3-chloro-2-ethyl-phenyl)-2-[[(2S)-1-methylpyrrolidin-2-yl]methoxy]-6,8-dihydro-5H-pyrido[3,4-d]pyrimidin-4-yl]-1-prop-2-enoyl-piperazin-2-yl]acetonitrile]
0.1 to 1000 nM | C=CC(=O)N1CCN(c2nc(OC[C@@H]3C[C@@H](OC)CN3C)nc3c2CCN(c2cccc4ccccc24)C3)CC1CC#N (stereo partly drawn) [Example 268, 2-(1-acryloyl-4-(2-(((2S,4R)-4-methoxy-1-methylpyrrolidin-2-yl)methoxy)-7-(naphthalen-1-yl)-5,6,7,8-tetrahydropyrido[3,4-d]pyrimidin-4-yl)piperazin-2-yl)acetonitrile]
> 1000 nM | C=CC(=O)N1CCN(c2nc(OC[C@@H]3CCCN3C)nc3c2CCN(c2cccc4ccccc24)C3)[C@@H](C#N)C1 [Example 465, (R)-4-acryloyl-1-(2-(((S)-1-methylpyrrolidin-2-yl)methoxy)-7-(naphthalen-1-yl)-5,6,7,8-tetrahydropyrido[3,4-d]pyrimidin-4-yl)piperazine-2-carbonitrile]
> 1000 nM | C=CC(=O)N1CCN(c2nc(OC[C@@H]3CCCN3C)nc3c2CCN(c2nncc4ccccc24)C3)C[C@@H]1CC#N [Example 431, 2-((S)-1-acryloyl-4-(2-(((S)-1-methylpyrrolidin-2-yl)methoxy)-7-(phthalazin-1-yl)-5,6,7,8-tetrahydropyrido[3,4-d]pyrimidin-4-yl)piperazin-2-yl)acetonitrile]
0.1 to 1000 nM | C=CC(=O)N1CCN(c2nc(OC[C@@H]3[C@H](F)CCN3C)nc3c2CCN(c2cccc4ccccc24)C3)C[C@@H]1CC#N [Example 440, 2-((S)-1-acryloyl-4-(2-(((2R,3R)-3-fluoro-1-methylpyrrolidin-2-yl)methoxy)-7-(naphthalen-1-yl)-5,6,7,8-tetrahydropyrido[3,4-d]pyrimidin-4-yl)piperazin-2-yl)acetonitrile]
